This is an account of results in ChEMBL document CHEMBL4038335, “Neuroactive Steroids. 2. 3α-Hydroxy-3β-methyl-21-(4-cyano-1H-pyrazol-1'-yl)-19-nor-5β-pregnan-20-one (SAGE-217): A Clinical Next Generation Neuroactive Steroid Positive Allosteric Modulator of the (γ-Aminobutyric Acid)A Receptor” (J Med Chem, 2017).

≈ marks a conversion by molar mass, not a printed value.

Data set [1] is described as follows: Clearance in mouse hepatic microsomes at 10 uM preincubated for 5 mins followed by NADPH addition measured over 60 mins by HPLC-MS/MS analysis. The format is ADME, Microsome. Conditions: liver microsomes. On the technique in general: Microsomes from liver hold many membrane-bound enzymes, among them those of drug oxidation.
The target of data set [2] is T1, GABA-A receptor; alpha-1/beta-2/gamma-2 (Homo sapiens, UniProt P14867+P18507+P47870).
T1 sequence (P14867 whole entry): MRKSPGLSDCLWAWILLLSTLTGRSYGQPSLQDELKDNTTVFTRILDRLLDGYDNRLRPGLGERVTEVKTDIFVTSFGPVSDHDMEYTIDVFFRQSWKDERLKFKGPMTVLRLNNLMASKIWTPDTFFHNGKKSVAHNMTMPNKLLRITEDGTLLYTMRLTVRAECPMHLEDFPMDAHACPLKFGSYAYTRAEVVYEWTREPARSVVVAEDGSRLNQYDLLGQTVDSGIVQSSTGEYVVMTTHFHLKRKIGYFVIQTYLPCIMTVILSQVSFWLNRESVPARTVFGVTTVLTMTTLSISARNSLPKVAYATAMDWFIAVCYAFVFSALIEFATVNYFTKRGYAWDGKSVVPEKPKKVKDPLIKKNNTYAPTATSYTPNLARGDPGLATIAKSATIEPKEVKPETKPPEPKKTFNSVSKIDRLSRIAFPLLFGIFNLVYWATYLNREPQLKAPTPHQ
T1 sequence (P47870 whole entry): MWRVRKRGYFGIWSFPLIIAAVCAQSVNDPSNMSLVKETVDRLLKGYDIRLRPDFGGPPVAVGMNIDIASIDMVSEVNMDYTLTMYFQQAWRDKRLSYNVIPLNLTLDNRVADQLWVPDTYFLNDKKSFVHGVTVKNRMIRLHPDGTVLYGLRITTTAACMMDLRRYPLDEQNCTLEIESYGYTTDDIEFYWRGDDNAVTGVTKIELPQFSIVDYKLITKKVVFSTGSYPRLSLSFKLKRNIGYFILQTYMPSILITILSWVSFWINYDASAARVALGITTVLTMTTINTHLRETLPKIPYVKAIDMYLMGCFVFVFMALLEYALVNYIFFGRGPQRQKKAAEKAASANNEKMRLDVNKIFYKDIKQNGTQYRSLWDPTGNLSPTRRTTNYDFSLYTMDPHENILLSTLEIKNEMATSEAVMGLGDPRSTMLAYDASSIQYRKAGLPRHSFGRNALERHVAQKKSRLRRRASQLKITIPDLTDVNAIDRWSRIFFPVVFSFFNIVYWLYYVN
T1 sequence (P18507 whole entry): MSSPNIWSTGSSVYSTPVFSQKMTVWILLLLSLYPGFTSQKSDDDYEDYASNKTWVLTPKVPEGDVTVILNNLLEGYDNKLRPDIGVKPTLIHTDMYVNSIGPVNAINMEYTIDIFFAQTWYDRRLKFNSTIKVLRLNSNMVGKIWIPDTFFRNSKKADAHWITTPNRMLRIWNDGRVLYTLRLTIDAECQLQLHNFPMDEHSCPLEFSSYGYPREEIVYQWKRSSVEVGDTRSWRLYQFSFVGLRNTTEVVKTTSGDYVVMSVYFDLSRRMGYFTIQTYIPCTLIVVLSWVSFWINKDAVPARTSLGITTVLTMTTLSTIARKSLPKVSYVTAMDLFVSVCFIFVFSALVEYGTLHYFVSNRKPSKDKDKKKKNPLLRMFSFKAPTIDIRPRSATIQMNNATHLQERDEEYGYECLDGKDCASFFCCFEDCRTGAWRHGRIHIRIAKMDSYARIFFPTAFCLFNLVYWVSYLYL
Briefly: Positive allosteric modulation of GABAA receptor alpha1beta2gamma2 (unknown origin) expressed in mouse LTK cells assessed as potentiation of GABA-mediated increase in channel current under holding potential at -80 mV preincubated for 30 secs followed by GABA stimulation for 2 secs by automated patch clamp assay. The format is cell-based. In general terms: In patch-clamp work, channel activity is measured electrically.

Data set [3] is described as follows: Clearance in CD1 mouse at 5 mg/kg, iv or 20 mg/kg, po measured up to 8 hrs post dose by LC/MS-MS analysis. Format: ADME, organism-based. Conditions: in vivo.
The nature of data set [4]: Displacement of [35S]TBPS from GABA-A receptor in Sprague-Dawley rat cerebral cortex cell membranes after 90 mins in presence of GABA by liquid scintillation counting.
For data set [5], the target named is GABA-A receptor alpha-4/beta-3/delta (Homo sapiens, UniProt P28472+P48169+). Briefly: Positive allosteric modulation of GABAA receptor alpha4beta3delta (unknown origin) expressed in CHO cells assessed as potentiation of GABA-mediated increase in channel current under holding potential at -80 mV at 0.01 to 10 uM preincubated for 30 secs followed by GABA stimulation for 2 secs by manual patch clamp assay relative to GABA. The format is cell-based. Conditions: 2 s.

Data set [6] has as its target GABA-A receptor; alpha-1/beta-2/gamma-2 (Homo sapiens) (UniProt P14867+P47870+P18507). The experiment in a line: Positive allosteric modulation of GABAA receptor alpha1beta2gamma2 (unknown origin) expressed in mouse LTK cells assessed as potentiation of GABA-mediated increase in channel current under holding potential at -80 mV at 0.01 to 10 uM preincubated for 30 secs followed by GABA stimulation for 2 secs by automated patch clamp assay relative to GABA. The format is cell-based.

For data set [7], the target named is Gamma-aminobutyric acid receptor subunit alpha-4/beta3/delta (Homo sapiens, UniProt O14764+P28472+P48169). The experiment in a line: Positive allosteric modulation of GABAA receptor alpha4beta3delta (unknown origin) expressed in CHO cells assessed as potentiation of GABA-mediated increase in channel current under holding potential at -80 mV preincubated for 30 secs followed by GABA stimulation for 2 secs by manual patch clamp assay. Format: cell-based.

Data set [8] can be described thus: Ratio of drug level in Sprague-Dawley rat brain to plasma at 5 mg/kg, iv measured at 30 mins post dose by LC/MS-MS analysis. Format: ADME, organism-based. Conditions: read-out: BPR.
Data set [9] in a line: Ratio of drug level in CD1 mouse brain to plasma at 5 mg/kg, iv measured at 30 mins post dose by LC/MS-MS analysis. Format: ADME, organism-based. Conditions: read-out: BPR.
The nature of data set [10]: Oral bioavailability in Sprague-Dawley rat at 20 mg/kg measured up to 8 hrs post dose by LC/MS-MS analysis. The format is ADME, organism-based. Conditions: in vivo.
The nature of data set [11]: Clearance in rat hepatic microsomes at 10 uM preincubated for 5 mins followed by NADPH addition measured over 60 mins by HPLC-MS/MS analysis. Format: ADME, Microsome. Conditions: liver microsomes.
A short description of data set [12]: Thermodynamic aqueous solubility of compound at 10 uM sonicated for 1 min followed by incubation for 1 hr by HPLC-MS/MS. Format: physicochemical. Conditions: buffer; read-out: Therm_solubility.
A short description of data set [13]: Oral bioavailability in CD1 mouse at 20 mg/kg measured up to 8 hrs post dose by LC/MS-MS analysis. Format: ADME, organism-based. Conditions: in vivo.
Data set [14] in a line: Clearance in human hepatic microsomes at 10 uM preincubated for 5 mins followed by NADPH addition measured over 60 mins by HPLC-MS/MS analysis. The format is ADME, Microsome. Conditions: liver microsomes.
Data set [15] is described as follows: Lipophilicity, logD of compound at 20 uM at pH 7.4 by HPLC/MS-MS analysis. Format: physicochemical. Conditions: buffer.
Data set [16] in a line: Clearance in Sprague-Dawley rat at 5 mg/kg, iv or 20 mg/kg, po measured up to 8 hrs post dose by LC/MS-MS analysis. The format is ADME, organism-based. Conditions: in vivo.

Gamma-aminobutyric acid receptor subunit alpha-4/beta3/delta, sequence (P28472 whole entry): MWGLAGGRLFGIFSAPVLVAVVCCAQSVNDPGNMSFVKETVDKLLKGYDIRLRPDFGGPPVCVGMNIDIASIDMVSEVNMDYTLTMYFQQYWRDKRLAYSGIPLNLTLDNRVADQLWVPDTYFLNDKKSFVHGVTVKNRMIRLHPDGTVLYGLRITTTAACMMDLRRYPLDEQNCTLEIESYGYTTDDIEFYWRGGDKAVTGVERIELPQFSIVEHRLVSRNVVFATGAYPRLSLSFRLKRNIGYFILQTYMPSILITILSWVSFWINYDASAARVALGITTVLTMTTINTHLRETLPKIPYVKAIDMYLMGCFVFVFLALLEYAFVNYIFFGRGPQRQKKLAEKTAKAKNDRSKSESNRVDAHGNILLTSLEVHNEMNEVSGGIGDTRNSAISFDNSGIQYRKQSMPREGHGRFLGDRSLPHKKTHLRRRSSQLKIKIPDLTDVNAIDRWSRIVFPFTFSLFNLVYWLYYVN
Gamma-aminobutyric acid receptor subunit alpha-4/beta3/delta, sequence (P48169 whole entry): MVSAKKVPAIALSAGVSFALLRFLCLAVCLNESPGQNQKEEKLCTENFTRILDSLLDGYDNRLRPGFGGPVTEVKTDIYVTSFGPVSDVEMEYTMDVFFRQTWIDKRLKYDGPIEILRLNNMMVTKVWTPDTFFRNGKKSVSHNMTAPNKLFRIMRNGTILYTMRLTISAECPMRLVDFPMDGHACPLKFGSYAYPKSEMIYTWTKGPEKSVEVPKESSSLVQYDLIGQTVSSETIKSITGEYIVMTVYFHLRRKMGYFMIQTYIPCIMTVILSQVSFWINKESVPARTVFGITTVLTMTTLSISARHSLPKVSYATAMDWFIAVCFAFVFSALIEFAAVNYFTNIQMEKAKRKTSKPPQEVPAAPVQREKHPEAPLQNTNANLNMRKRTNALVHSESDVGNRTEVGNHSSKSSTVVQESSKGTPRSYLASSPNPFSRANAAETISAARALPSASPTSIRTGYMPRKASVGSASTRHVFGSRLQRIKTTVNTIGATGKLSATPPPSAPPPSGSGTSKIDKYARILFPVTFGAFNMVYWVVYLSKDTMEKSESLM
Gamma-aminobutyric acid receptor subunit alpha-4/beta3/delta, sequence (O14764 whole entry): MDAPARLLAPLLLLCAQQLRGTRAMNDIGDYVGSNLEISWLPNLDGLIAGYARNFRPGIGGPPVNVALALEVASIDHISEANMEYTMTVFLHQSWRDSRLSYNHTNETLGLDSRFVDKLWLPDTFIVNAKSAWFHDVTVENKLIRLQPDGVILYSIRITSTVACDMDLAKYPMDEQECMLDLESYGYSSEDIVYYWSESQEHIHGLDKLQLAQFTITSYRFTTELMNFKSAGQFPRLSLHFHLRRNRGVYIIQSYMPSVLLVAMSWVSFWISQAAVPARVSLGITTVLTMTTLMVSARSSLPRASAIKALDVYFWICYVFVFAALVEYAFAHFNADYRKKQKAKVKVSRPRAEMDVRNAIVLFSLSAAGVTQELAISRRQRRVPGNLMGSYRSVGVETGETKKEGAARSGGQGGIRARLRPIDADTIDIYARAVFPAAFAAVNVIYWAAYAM
GABA-A receptor alpha-4/beta-3/delta, sequence (P28472 whole entry): as the sequence (P28472 whole entry) above
GABA-A receptor alpha-4/beta-3/delta, sequence (P48169 whole entry): as the sequence (P48169 whole entry) above
GABA-A receptor alpha-4/beta-3/delta, sequence (Q06278 whole entry, further chain): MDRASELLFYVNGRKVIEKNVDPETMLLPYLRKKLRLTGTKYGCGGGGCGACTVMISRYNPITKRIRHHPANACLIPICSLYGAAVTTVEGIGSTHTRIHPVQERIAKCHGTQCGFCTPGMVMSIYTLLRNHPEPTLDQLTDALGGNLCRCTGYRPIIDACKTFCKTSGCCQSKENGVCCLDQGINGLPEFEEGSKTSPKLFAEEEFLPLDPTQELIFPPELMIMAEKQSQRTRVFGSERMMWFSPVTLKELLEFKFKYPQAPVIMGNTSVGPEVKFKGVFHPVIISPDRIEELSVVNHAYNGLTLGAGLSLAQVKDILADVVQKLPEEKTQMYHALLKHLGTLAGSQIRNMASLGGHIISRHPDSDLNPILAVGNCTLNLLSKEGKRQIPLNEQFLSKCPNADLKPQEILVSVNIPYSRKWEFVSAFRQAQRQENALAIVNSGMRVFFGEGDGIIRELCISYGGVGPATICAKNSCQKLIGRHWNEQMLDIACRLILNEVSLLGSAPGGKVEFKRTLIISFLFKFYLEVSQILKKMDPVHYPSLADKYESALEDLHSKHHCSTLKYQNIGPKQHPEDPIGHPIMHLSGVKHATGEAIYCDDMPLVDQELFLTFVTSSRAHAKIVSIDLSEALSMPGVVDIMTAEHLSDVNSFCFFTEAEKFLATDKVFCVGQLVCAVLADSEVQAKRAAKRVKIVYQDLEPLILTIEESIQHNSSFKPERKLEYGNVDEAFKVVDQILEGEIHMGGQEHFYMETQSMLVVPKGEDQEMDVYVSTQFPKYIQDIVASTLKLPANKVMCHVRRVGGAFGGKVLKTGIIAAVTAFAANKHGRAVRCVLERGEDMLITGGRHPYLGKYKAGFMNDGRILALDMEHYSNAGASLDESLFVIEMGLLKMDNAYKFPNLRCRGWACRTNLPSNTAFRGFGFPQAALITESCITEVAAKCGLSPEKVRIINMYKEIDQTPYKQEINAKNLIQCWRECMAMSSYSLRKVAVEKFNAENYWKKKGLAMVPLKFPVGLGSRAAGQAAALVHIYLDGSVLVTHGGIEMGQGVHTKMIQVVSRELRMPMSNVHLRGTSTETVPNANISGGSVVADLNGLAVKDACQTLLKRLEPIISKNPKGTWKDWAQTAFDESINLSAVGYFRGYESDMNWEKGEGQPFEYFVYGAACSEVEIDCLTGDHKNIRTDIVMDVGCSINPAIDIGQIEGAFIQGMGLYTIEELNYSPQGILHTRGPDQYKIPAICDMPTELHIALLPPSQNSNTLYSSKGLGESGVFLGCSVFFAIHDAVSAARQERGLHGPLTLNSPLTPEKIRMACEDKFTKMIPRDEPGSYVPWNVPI

As to `CC(=O)[C@H]1CC[C@H]2[C@@H]3CC[C@H]4C[C@H](O)CC[C@]4(C)[C@H]3CC[C@]12C` [BREXANOLONE], the CLhep predicted at 10 µM in data set [1] is 4 L/h/kg; in data set [11] it was 3.3 L/h/kg. The EC50 (in general, the concentration needed to bring the measured effect to its halfway point) in data set [2] was determined as 0.237 µM; in [7], 0.0755 µM. This compound also gave a clearance in [3] of 12 L/h/kg. In addition, the IC50 (usually the concentration needed to halve the response being measured) in data set [4] came out at 0.022 µM. Also, the figures for the Emax in data set [5] and in [6] were 430% and 510%, respectively. The results for the Kp at 0.5 h in data set [8] and in data set [9] were 1.8 and 1.9, respectively. Besides, the bioavailability (as a rule, the share of a dose that reaches the circulation, judged against a reference dose that is usually intravenous) in data set [10] was found to be 2%. For the same compound, the solubility thermodynamic at 1 h, 10 µM in data set [12] stood at 3.3 µM (≈ 1.05 µg/mL).
On to `C[C@@]1(O)CC[C@H]2[C@H](CC[C@@H]3[C@@H]2CC[C@]2(C)[C@@H](C(=O)Cn4ccc(C#N)n4)CC[C@@H]32)C1`, for which the CLhep predicted at 10 µM is 5 L/h/kg in data set [1], 0.3 L/h/kg in [14] and 2.5 L/h/kg in [11]. Further, the bioavailability in data set [13] was found to be 26%; in data set [10] it was 56%. The figures for the EC50 in data set [2] and in data set [7] were 0.225 µM and 0.11 µM, respectively. Further, the clearance is 2.6 L/h/kg in data set [3] and 1.5 L/h/kg in [16]. In addition, the IC50 in data set [4] is 0.013 µM. For the same compound, the Emax – broadly, the greatest response seen or fitted, relative to the assay's reference – in data set [5] was 330%; in data set [6], 725%. Further, the logD (usually the decadic logarithm of the distribution of all forms, ionised or not, between an organic phase and buffer at a given pH) at 20 µM in data set [15] worked out at 4.6. Further, the Kp at 0.5 h stood at 1.9 in [8] and 1.4 in data set [9]. In addition, the solubility thermodynamic at 1 h, 10 µM in data set [12] came out at 1.9 µM (≈ 0.778 µg/mL).
With `Cc1cnn(CC(=O)[C@H]2CC[C@H]3[C@@H]4CC[C@@H]5C[C@](C)(O)CC[C@@H]5[C@H]4CC[C@]23C)n1`, the CLhep predicted at 10 µM in data set [1] is 4.9 L/h/kg; in [14], 0.3 L/h/kg; in [11] it was 3.2 L/h/kg. In addition, the results for the bioavailability in data set [13] and in data set [10] were 39% and 6%, respectively. Also, the EC50 in [2] was determined as 1.64 µM; in data set [7] it was 0.192 µM. For the same compound, the clearance is 3.7 L/h/kg in data set [3] and 3 L/h/kg in [16]. Further, the IC50 in data set [4] came to 0.021 µM. Also, the Emax in data set [5] is 614%; in [6] it was 532%. Also, the Kp at 0.5 h in data set [9] came to 1. For the same compound, in data set [12], the solubility thermodynamic at 1 h, 10 µM is 7 µM (≈ 2.8 µg/mL).
On to `C[C@@]1(O)CC[C@H]2[C@H](CC[C@@H]3[C@@H]2CC[C@]2(C)[C@@H](C(=O)Cn4nccn4)CC[C@@H]32)C1`, for which the CLhep predicted at 10 µM is 4 L/h/kg in data set [1], 0.2 L/h/kg in [14] and 2.7 L/h/kg in data set [11]. In addition, the results for the bioavailability in data set [13] and in [10] were 17% and 25%, respectively. The EC50 in [2] came out at 0.125 µM; in [7], 0.24 µM. In [3], this compound showed a clearance of 2.6 L/h/kg. Further, in [4], the IC50 was 0.011 µM. For the same compound, the Emax in [5] was 579%; in data set [6] it was 663%. The Kp at 0.5 h in [8] was found to be 1.8; in data set [9] it was 1. The solubility thermodynamic at 1 h, 10 µM in [12] worked out at 7.3 µM (≈ 2.81 µg/mL).
